From paper PMC11979685, “Synthesis of Derivatives of the Antibiotic Albicidin: The N‐Terminal Fragment as Key to Control Potency and Resistance Mediated by the Binding Protein AlbA” (Chemistry (Weinheim an Der Bergstrasse, Germany), 2025)
Converted amounts (≈) assume the structure as drawn.

Legend:
E. coli DSM 1116 = assay: Qualitative growth inhibition assay in presence of AlbAS; type: cell-based, Escherichia coli; settings: for GIA: E. coli inhibition +AlbA: E. coli DSM 1116, 10 µM compound with equimolar AlbAS; for bioactivity in presence of AlbAS (in words): E. coli, equimolar purified AlbAS
Description: Finally, we investigated if synthetic variations of building block A are able to evade the effects of the resistance protein AlbA. Therefore, we carried out a qualitative growth inhibition assay with derivatives 4–24 in presence of an equimolar amount of purified AlbAS. After incubation of the cultures overnight, the growth of the bacteria was evaluated. The ability of AlbAS to sufficiently sequester an albicidin derivative from the supernatant allowed E. coli cells to accumulate in a visible cell pellet. Second, we performed a quantitative transcription‐activation reporter assay[22] to assess transcriptional regulation by AlbAL. The promoter sequence pAlbA was inserted into a reporter vector that encodes the ilux luminescence cassette.[22] The luminescence signals elicited by ligand binding of synthetic variations to AlbAL was compared and normalized to the signal induced by 2nd Gen albicidin 2 and are hereby referred to as relative transcription activation (TA^%). The combination of both assays prompted us to categorize the experimental outcomes (Figure 4) in four groups:
Figure 4 Characterization of AlbA resistance against derivatives 2, 4–24. GIA: Qualitative growth inhibition assay against E. coli DSM 1116. (−): Derivative unable to inhibit the growth of E. coli in presence of AlbAS. (+): Derivative inhibits growth of E. coli in presence of AlbAS. […] For details see SI Figure 9. Transcription activation (TA) assay: luminescence elicited by 2nd Gen albicidin 2 from the TA assay was normalized to 100 % and the luminescence signal of tested derivatives provided: relative luminescence [%]=luminescence [derivative]/luminescence [2]×100 %. Green bars indicate low relative luminescence (<40 %) and red bars indicate high relative luminescence (>50 %). Error bars show the standard deviations of triplicate measurements. TEXT PRINTED IN THE PICTURE: 2: E. coli inhibition +AlbA: − | 4: E. coli inhibition +AlbA: + | 9: E. coli inhibition +AlbA: + | 11: E. coli inhibition +AlbA: + | 12: E. coli inhibition +AlbA: + | 13: E. coli inhibition +AlbA: ~ | 14: E. coli inhibition +AlbA: − | 16: E. coli inhibition +AlbA: − | 17: E. coli inhibition +AlbA: − | 18: E. coli inhibition +AlbA: − | 19: E. coli inhibition +AlbA: − | 20: E. coli inhibition +AlbA: + | 21: E. coli inhibition +AlbA: − | 22: E. coli inhibition +AlbA: − | 23: E. coli inhibition +AlbA: − | 24: E. coli inhibition +AlbA: − […]
1.3 Resistance assessment against AlbA
E. coli strain DSM 1116 was used for all susceptibility testing. E. coli BL21 Star (DE3) cells (Invitrogen) were used for protein expression. LB medium (Lysogeny broth: 10 g/L peptone, 5 g/L yeast extract, 5 g/L NaCl) was used as broth or in agar plates for all experiments. Incubation steps took place at 37°C and 180 rpm shaking if not stated otherwise. Throughout the study, 2nd Gen albicidin 2 was used as albicidin standard due to its better stability, availability and similar activity compared to natural albicidin in presence of resistance factors.[3,4]
AlbA expression and purification
N-terminally His-tagged AlbA was expressed using a pET28a vector as described previously.[5] In brief, E. coli BL21(DE3) cells were transformed with pET28-AlbA plasmid and grown in LB medium with kanamycin. LB broth supplemented with 50 µg/mL kanamycin was inoculated from over-night cultures and grown at 37°C until an OD600 of 0.6 was reached. After induction with 0.2 mM isopropyl β-D-1-thiogalactopyranoside (IPTG) the proteins were expressed at 18°C for 20 h. The cells were harvested by centrifugation (4,000 x G, 20 min), resuspended in lysis buffer (50 mM Tris, pH 8.0, 500 mM NaCl, 10% glycerol) and processed in a cell disruptor (Constant Systems Ltd) at 25 kPsi before centrifugation at 50,000 x G, at 4°C for 45 min. The lysate was incubated with Pure Cube Ni-NTA agarose (Cube Biotech, Germany) at 4°C for 20 min while shaking. The slurry was transferred to empty gravity-flow […]

[1] = test system: Salmonella typhimurium TA100; assay: MIC determination (broth microdilution); type: cell-based; settings: Salmonella enterica, read-out: MIC S. typh.
Outline: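 MIC values were read visually as the lowest concentration inhibiting growth after 16 h at 30−37°C. Tests followed CLSI M07-A9, using cation-adjusted Mueller-Hinton broth II seeded at approximately 1x10^6 CFU mL-1 and final compound levels of 128 to 0.016 μg/mL added from DMSO.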

COc1c(NC(=O)c2ccc(NC(=O)c3ccc(NC(=O)[C@H](Cc4c[nH]nn4)NC(=O)c4ccc(NC(=O)c5ccc6nc(C)ccc6c5)cc4)cn3)c(OC)c2O)ccc(C(=O)O)c1O [compound 16]
GIA: E. coli inhibition +AlbA (E. coli DSM 1116): −
bioactivity in presence of AlbAS (in words) (E. coli DSM 1116): deactivated

COc1c(NC(=O)c2ccc(NC(=O)c3ccc(NC(=O)[C@H](Cc4c[nH]nn4)NC(=O)c4ccc(NC(=O)c5ccc6nn[nH]c6c5)cc4)cn3)c(OC)c2O)ccc(C(=O)O)c1O [compound 24]
MIC [1]: 0.031 µg/mL (≈ 0.0356 µM)
GIA: E. coli inhibition +AlbA (E. coli DSM 1116): −
bioactivity in presence of AlbAS (in words) (E. coli DSM 1116): deactivated

COc1c(NC(=O)c2ccc(NC(=O)c3ccc(NC(=O)[C@H](Cc4c[nH]nn4)NC(=O)c4ccc(NC(=O)c5c[nH]c6ccccc6c5=O)cc4)cn3)c(OC)c2O)ccc(C(=O)O)c1O [compound 17]
GIA: E. coli inhibition +AlbA (E. coli DSM 1116): −
bioactivity in presence of AlbAS (in words) (E. coli DSM 1116): deactivated

COc1c(NC(=O)c2ccc(NC(=O)c3ccc(NC(=O)[C@H](Cc4c[nH]nn4)NC(=O)c4ccc(NC(=O)[C@@H](C)Oc5ccc(O)cc5)cc4)cn3)c(OC)c2O)ccc(C(=O)O)c1O [compound 9]
MIC [1]: 0.063 µg/mL (≈ 0.0708 µM)
GIA: E. coli inhibition +AlbA (E. coli DSM 1116): +
bioactivity in presence of AlbAS (in words) (E. coli DSM 1116): has bioactivity

COc1c(NC(=O)c2ccc(NC(=O)c3ccc(NC(=O)[C@H](Cc4c[nH]nn4)NC(=O)c4ccc(NC(=O)c5cc6cc(O)ccc6[nH]5)cc4)cn3)c(OC)c2O)ccc(C(=O)O)c1O [compound 21]
MIC [1]: 0.125 µg/mL (≈ 0.141 µM)
GIA: E. coli inhibition +AlbA (E. coli DSM 1116): −
bioactivity in presence of AlbAS (in words) (E. coli DSM 1116): deactivated

COc1c(NC(=O)c2ccc(NC(=O)c3ccc(NC(=O)[C@H](Cc4c[nH]nn4)NC(=O)c4ccc(NC(=O)c5ccc6nc[nH]c6c5)cc4)cn3)c(OC)c2O)ccc(C(=O)O)c1O [compound 23]
MIC [1]: 0.125 µg/mL (≈ 0.144 µM)
GIA: E. coli inhibition +AlbA (E. coli DSM 1116): −
bioactivity in presence of AlbAS (in words) (E. coli DSM 1116): deactivated

COc1c(NC(=O)c2ccc(NC(=O)c3ccc(NC(=O)[C@H](Cc4c[nH]nn4)NC(=O)c4ccc(NC(=O)c5cc(=O)c6cc(F)ccc6o5)cc4)cn3)c(OC)c2O)ccc(C(=O)O)c1O [compound 20]
MIC [1]: ≤ 0.016 µg/mL
GIA: E. coli inhibition +AlbA (E. coli DSM 1116): +
bioactivity in presence of AlbAS (in words) (E. coli DSM 1116): highly bioactive

COc1c(NC(=O)c2ccc(NC(=O)c3ccc(NC(=O)[C@H](Cc4c[nH]nn4)NC(=O)c4ccc(NC(=O)c5cc6ccccc6cn5)cc4)cn3)c(OC)c2O)ccc(C(=O)O)c1O [compound 12]
MIC [1]: ≤ 0.016 µg/mL
GIA: E. coli inhibition +AlbA (E. coli DSM 1116): +
bioactivity in presence of AlbAS (in words) (E. coli DSM 1116): highly bioactive

COc1c(NC(=O)c2ccc(NC(=O)c3ccc(NC(=O)[C@H](Cc4c[nH]nn4)NC(=O)c4ccc(NC(=O)c5ccc6ccccc6n5)cc4)cn3)c(OC)c2O)ccc(C(=O)O)c1O [compound 11]
MIC [1]: ≤ 0.016 µg/mL
GIA: E. coli inhibition +AlbA (E. coli DSM 1116): +
bioactivity in presence of AlbAS (in words) (E. coli DSM 1116): highly bioactive

CCn1cc(C(=O)Nc2ccc(C(=O)N[C@@H](Cc3c[nH]nn3)C(=O)Nc3ccc(C(=O)Nc4ccc(C(=O)Nc5ccc(C(=O)O)c(O)c5OC)c(O)c4OC)nc3)cc2)c(=O)c2cc3c(cc21)OCO3 [compound 19]
GIA: E. coli inhibition +AlbA (E. coli DSM 1116): −
bioactivity in presence of AlbAS (in words) (E. coli DSM 1116): deactivated

COc1c(NC(=O)c2ccc(NC(=O)c3ccc(NC(=O)[C@H](Cc4c[nH]nn4)NC(=O)c4ccc(NC(=O)c5cnc6ccccc6c5)cc4)cn3)c(OC)c2O)ccc(C(=O)O)c1O [compound 13]
bioactivity in presence of AlbAS (in words) (E. coli DSM 1116): has bioactivity

COc1c(NC(=O)c2ccc(NC(=O)c3ccc(NC(=O)[C@H](Cc4c[nH]nn4)NC(=O)c4ccc(NC(=O)c5ccc(C#N)cc5)cc4)cn3)c(OC)c2O)ccc(C(=O)O)c1O [compound 4]
MIC [1]: ≤ 0.016 µg/mL
GIA: E. coli inhibition +AlbA (E. coli DSM 1116): +
bioactivity in presence of AlbAS (in words) (E. coli DSM 1116): has bioactivity

CCn1cc(C(=O)Nc2ccc(C(=O)N[C@@H](Cc3c[nH]nn3)C(=O)Nc3ccc(C(=O)Nc4ccc(C(=O)Nc5ccc(C(=O)O)c(O)c5OC)c(O)c4OC)nc3)cc2)c(=O)c2ccc(C)nc21 [compound 18]
MIC [1]: ≤ 0.016 µg/mL
GIA: E. coli inhibition +AlbA (E. coli DSM 1116): −
bioactivity in presence of AlbAS (in words) (E. coli DSM 1116): deactivated

COc1c(NC(=O)c2ccc(NC(=O)c3ccc(NC(=O)[C@H](Cc4c[nH]nn4)NC(=O)c4ccc(NC(=O)c5ccc6ncccc6c5)cc4)cn3)c(OC)c2O)ccc(C(=O)O)c1O [compound 14]
MIC [1]: ≤ 0.016 µg/mL
GIA: E. coli inhibition +AlbA (E. coli DSM 1116): −
bioactivity in presence of AlbAS (in words) (E. coli DSM 1116): deactivated

COc1c(NC(=O)c2ccc(NC(=O)c3ccc(NC(=O)[C@H](Cc4c[nH]nn4)NC(=O)c4ccc(NC(=O)c5ccc6ncsc6c5)cc4)cn3)c(OC)c2O)ccc(C(=O)O)c1O [compound 22]
MIC [1]: ≤ 0.016 µg/mL
GIA: E. coli inhibition +AlbA (E. coli DSM 1116): −
bioactivity in presence of AlbAS (in words) (E. coli DSM 1116): deactivated
